Tested on: genes involved in osteoblast activity, osteoclastogenesis, apoptosis and oxidative stress enzymes
Assay: OVX rat study: qRT-PCR of bone marrow and flushed femur
Assay type: in vivo, Wistar rats
Conditions: for decrease in concentration ratio of RANKL/OPG: P<0.05
Procedure: FIG. 10 depicts […] analysis of genes involved in osteoblast activity, osteoclastogenesis, apoptosis and oxidative stress enzymes, in accordance with embodiments of the present invention. Bone marrow (A) was analyzed for relative mRNA abundance of the osteoclastogenesis gene factor of activated T-cells (Nfatc1), while the flushed femur (B-D) was used to examine genes involved in osteoblast activity and function: type 1 collagen (Colla1), osteocalcin (Ocn), alkaline phosphatase (Alp), osteoprotegerin (Opg), and receptor activator for NF-kappa B ligand (Rankl) in sham-operated (SHAM) and ovariectomized (Ovx) rats treated with placebo or lycopene (15, 30 and 45 mg/kg body weight per day) or alendronate (ALN) (2.0 ug/kg body weight per day) for 12 weeks. Bone marrow (F-H) was analyzed for relative mRNA abundance of oxidative enzyme: glutathione peroxidase (GPx), superoxide dismutase (SOD) and catalase (CAT) in sham-operated (SHAM) and ovariectomized (Ovx) rats treated with placebo or lycopene (15, 30 and 45 mg/kg body weight per day) or alendronate (ALN) (2.0 ug/kg body weight per day) for 12 weeks. Bone marrow (I) and the flushed femur (J-L) were analyzed for relative mRNA abundance of apoptotic genes. Genes of interest including, B-cell lymphoma homologous antagonist/killer (Bak1), caspase-3 (Casp3) and -9 (Casp 9) in sham-operated (SHAM) and ovariectomized (Ovx) rats treated with placebo or lycopene (15, 30 and 45 mg/kg body weight per day) or alendronate (ALN) (2.0 ug/kg body weight per day) for 12 weeks. Bars represent the mean±SD for 10 rats in each group.
A total of 264 Wistar female rats, ˜6 months old, were supplied by the Animal House at King Fahd Medical Research Center (KFMRC), KAU. Rats were housed in individual cages and maintained at 22° C. with a 12-h light/dark cycle. During the study period, rats were given standard rodent chow diet ad libitum (commercial rat cubes containing approximately 18% protein, 3% fat, 77% carbohydrate, and 2% of an inorganic-salt mixture with a vitamin supplement by weight, supplied by Grain Silos and Flour Mills Organization, Jeddah, Saudi Arabia) and water until the onset of intervention. Prior to surgery, rats were anesthetized with ketamine [(10% ketamine hydrochloride (80 mg/kg body weight), Cayman Chemical, Michigan, USA] and xylazine [(2% xylazine hydrochloride, 10 mg/kg body weight), Sigma-Aldrich Co., St. Louis, USA]. A single longitudinal skin incision was made on the dorsal midline at the level of the kidneys and both ovaries were ligated and removed to produce an ovariectomy in all OVX group animals. A SHAM-operated group, acting as a negative control for the effect of ovariectomy on bone parameters, underwent bilateral laparotomy, during which the ovaries were exposed but remained intact. […] The lycopene-supplemented groups were given lycopene (15, 30 and 45 mg/kg body weight per day) dissolved in corn oil by daily intra-gastric administration for the experimental period of 12 weeks. The SHAM, OVX and ALN control groups were given the same volume of corn oil without lycopene treatment. […] A 12-week randomized placebo-controlled study in order to examine the protective effects of lycopene supplementation on bone mass and fragility in OVX rats was concluded. Prior to surgery, body weight and bone mineral density (BMD) were obtained for all animals. Rats were randomized using a computer-generated randomization code into one of six groups: (1) sham-operated (SHAM; n=44); (2) ovariectomized control (OVX; n=44); (3) OVX lycopene-supplemented (15 mg/kg body weight per day) (n=44); (4) OVX lycopene-supplemented (30 mg/kg body weight per day) (n=44); (5) OVX lycopene-supplemented (45 mg/kg body weight per day) (n=44) and (6) OVX alendronate-treated (ALN) [2.0 μg/kg body weight per day subcutaneously (sc)] (n=44). Alendronate is an anti-resorptive agent for the treatment of osteoporosis and was used as a positive therapy control. […]

[1] = flushed femurs, lycopene treatment

## CC(C)=CCC/C(C)=C/C=C/C(C)=C/C=C/C(C)=C/C=C/C=C(C)/C=C/C=C(C)/C=C/C=C(\C)CCC=C(C)C [lycopene]
OVX rats, lycopene treatment
  Alp, Colla1 and Ocn mRNA: enhancing
All three doses of lycopene
  RANKL expression: down-regulated
Bone marrow, lycopene treatment
  Bak1 mRNA abundance compared to OVX control: up-regulated
Bone marrow, lycopene, 12 weeks, restored to SHAM level
  OVX-induced increase in Nfatc1 mRNA: suppressed
[1]
  Casp 9 and Casp 3 gene expression: did not change
  Colla1 gene expression: remained elevated
Higher doses of lycopene
  OPG expression: decreased
Lycopene 30 mg/kg body weight per day
  decrease in concentration ratio of RANKL/OPG: 18.9%
Lycopene 45 mg/kg body weight per day
  decrease in concentration ratio of RANKL/OPG: 38.3%
Lycopene treatment, to a level higher than SHAM
  GPX-1, CAT and SOD relative expression: increased
